Patent publication US12415793B2, “Modulators of TMEM16A for treating respiratory disease” (TMEM16A Limited, priority 2020, dated 2025)

Molecular target: T1, human TMEM16A (TMEM16Aabc variant) (Homo sapiens, UniProt Q5XXA6, DEL476-501)
T1 sequence (Q5XXA6 with tags, fused parts or gaps isoform Q5XXA6-5 DEL539-564): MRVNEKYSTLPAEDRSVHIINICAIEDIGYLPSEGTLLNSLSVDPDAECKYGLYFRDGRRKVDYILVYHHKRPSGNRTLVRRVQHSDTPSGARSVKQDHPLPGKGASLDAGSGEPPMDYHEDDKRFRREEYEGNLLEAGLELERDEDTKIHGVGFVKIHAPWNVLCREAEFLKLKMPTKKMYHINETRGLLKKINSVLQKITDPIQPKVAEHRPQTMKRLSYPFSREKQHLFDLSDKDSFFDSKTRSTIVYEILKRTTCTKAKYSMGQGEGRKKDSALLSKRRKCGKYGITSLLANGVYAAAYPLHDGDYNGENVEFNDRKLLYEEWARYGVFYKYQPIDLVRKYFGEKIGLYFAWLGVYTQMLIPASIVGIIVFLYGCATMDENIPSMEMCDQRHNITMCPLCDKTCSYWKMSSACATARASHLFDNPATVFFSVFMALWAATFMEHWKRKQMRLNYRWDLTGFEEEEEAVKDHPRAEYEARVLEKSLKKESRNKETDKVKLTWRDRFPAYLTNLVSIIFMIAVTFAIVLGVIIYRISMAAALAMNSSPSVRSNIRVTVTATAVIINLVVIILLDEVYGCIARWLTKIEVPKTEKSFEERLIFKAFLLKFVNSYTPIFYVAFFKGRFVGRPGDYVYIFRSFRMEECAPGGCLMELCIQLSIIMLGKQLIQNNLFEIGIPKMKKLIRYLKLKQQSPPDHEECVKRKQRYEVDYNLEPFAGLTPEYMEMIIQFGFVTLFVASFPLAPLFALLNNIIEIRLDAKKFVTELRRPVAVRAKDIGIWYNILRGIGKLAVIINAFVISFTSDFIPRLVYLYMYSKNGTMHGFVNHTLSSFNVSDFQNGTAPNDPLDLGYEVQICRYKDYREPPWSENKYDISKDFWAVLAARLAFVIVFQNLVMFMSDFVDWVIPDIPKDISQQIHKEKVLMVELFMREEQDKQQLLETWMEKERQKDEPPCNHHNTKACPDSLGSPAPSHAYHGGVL
Assay: Automated whole-cell patch clamp (Qpatch) assay to detect TMEM16A activity in recombinant cells
Type: cell-based
Details: for activation at 3.33 µM: 3.33 μM solution of test compound, percentage increase of baseline TMEM16A current, FRT cells stably expressing human TMEM16A, intracellular calcium at EC20, +70 mV, read-out: % Potentiation @ 3.33 μM Avg; for EC50: calculated from cumulative concentration response curve, FRT-TMEM16A cells, whole-cell patch clamp (Qpatch)
Description: Automated Whole-Cell Patch Clamp Assay to Detect TMEM16A Activity in Recombinant Cells
Cell Culture and Preparation
Fisher rat thyroid (FRT) cells stably expressing human TMEM16A (TMEM16Aabc variant; Dr Luis Galietta, Insituto Giannina, Italy) were cultured in T-75 flasks in Hams F-12 media with Coon's modification (Sigma) supplemented with 10% (v/v) foetal bovine serum, penicillin-streptomycin (10,000 U/mL/10000 μg/mL), G-418 (750 μg/mL), L-glutamine (2 mM) and sodium bicarbonate solution (7.5% v/v). At ˜90% confluence cells were harvested for experiments by detachment with a 2:1 (v/v) mixture of Detachin (BMS Biotechnology) and 0.25% (w/v) trypsin-EDTA. Cells were diluted to a density of 3.5-4.5×10^6 cells/mL with media consisting of CHO-S-SFM II (Sigma), 25 mM HEPES (Sigma) and Soy bean trypsin inhibitor (Sigma).
Whole-Cell Patch Clamp Recording
FRT-TMEM16A cells were whole-cell patch clamped using an automated planar patch clamp system (Qpatch, Sophion). Briefly, once high resistance (GOhm) seals were established between the cells and the planar recording array the patch was ruptured using suction pulses to establish the whole-cell recording configuration of the patch clamp technique. The assay employed the following solutions (all reagents Sigma): • Intracellular solution (mM): N-methyl-D-glucamine 130, CaCl2 18.2, MgCl2 1, HEPES 10, EGTA 10, BAPTA 20, Mg-ATP 2, pH 7.25, 325mOsm with sucrose. • Extracellular solution (mM): N-methyl-D-glucamine 130, CaCl2 2, MgCl2 1, HEPES 10, pH 7.3, 320 mOsm with sucrose.
The intracellular solution buffers intracellular calcium at levels required to give ˜20% activation of the maximal TMEM16A mediated current (EC20 for calcium ions). Cells were voltage clamped at a holding potential of −70 mV and a combined voltage step (to +70 mV)/ramp (−90 my to +90 mV) was applied at 0.05 Hz. After a period of current stabilisation test compounds, solubilised in 100% (v/v) DMSO and subsequently diluted into extracellular solution, were applied to generate a cumulative concentration response curve. Each concentration of test compound was incubated for 5 minutes before addition of the next concentration. After the final concentration was tested a supramaximal concentration of either a known active positive modulator or the TMEM16A inhibitor, CaCCinhA01 (Del La Fuente et al, 2008) was added to define the upper and lower limits of the assay.
Compound activity was quantified by measuring the increase in current upon compound addition and expressing this as a percentage increase of baseline TMEM16A current level. Percentage increases in current were determined for each concentration and the data plotted as a function of concentration using either the Qpatch software or Graphpad Prism v6.05 providing the concentration which gave 50% of its maximal effect (EC50) and maximum efficacy (percentage of baseline increase).
In FIG. 1, IBL equals baseline current, I[#1] equals the peak current during test compound concentration 1 incubation period and so on.
Peak TMEM16A current at +70 mV was plotted as a function of time over the assay period. Baseline current (IBL) was measured after a period of stabilisation. The increase in current for each compound addition was determined by taking the peak current during the incubation period and subtracting the current from the previous recording period and then expressing this as a percentage of the baseline current. For test compound concentration 1 in FIG. 1 this is:
For each additional concentration tested the increase in current was determined by subtracting the current from the previous incubation period and normalising the baseline value—for test concentration 2 in FIG. 1 this is:
The values for each test concentration were plotted as a cumulative function of concentration e.g. for test concentration two this would be the sum of the peak changes measured during concentration one plus concentration two.

| SMILES | activation at 3.33 µM | EC50 |
| --- | --- | --- |
| CC(C)(C)C(=O)Nc1cc(NC(=O)Cc2cc(Cl)ccc2O)ccn1 [Example 7, N-[4-[[2-(5-Chloro-2-hydroxy-phenyl)acetyl]amino]-2-pyridyl]-2,2-dimethyl-propanamide] | 156% | 615 nM |
| CC(C)(C)NC(=O)c1csc(NC(=O)Cc2cc(Cl)ccc2O)c1 [Example 1.1, N-tert-Butyl-5-[[2-(5-chloro-2-hydroxy-phenyl)acetyl]amino]thiophene-3-carboxamide] | 184% | 440 nM |
| CC(C)(C)NC(=O)c1ccc(NC(=O)Cc2cc(Cl)ccc2O)s1 [Example 1, N-tert-Butyl-5-[[2-(5-chloro-2-hydroxy-phenyl)acetyl]amino]thiophene-2-carboxamide] | 107% | 42 nM |
| CC(C)(CO)c1cc(F)c(CC(=O)Nc2ccc(C(=O)NC3(C(F)(F)F)CC3)s2)cc1O [Example 9, 5-[[2-[2-Fluoro-5-hydroxy-4-(2-hydroxy-1,1-dimethyl-ethyl)phenyl]acetyl]amino]-N-[1-(trifluoromethyl)cyclopropyl]thiophene-2-carboxamide] | 134% | 98 nM |
| CC(C)(C)C(=O)Nc1ccnc(C(=O)NCc2cc(Cl)ccc2O)c1 [Example 3, N-[(5-Chloro-2-hydroxy-phenyl)methyl]-4-(2,2-dimethylpropanoylamino)pyridine-2-carboxamide] | 81.3% | – |
| CC(C)(C)C(=O)Nc1cccc(NC(=O)Cc2cc(Cl)ccc2O)c1 [Example 6, N-[3-[[2-(5-Chloro-2-hydroxy-phenyl)acetyl]amino]phenyl]-2,2-dimethyl-propanamide] | 68.1% | 992 nM |
| CC(C)(C#N)NC(=O)c1ccc(NC(=O)Cc2cc(O)c(C(C)(C)C)cc2F)s1 [Example 8, 5-[[2-(4-tert-Butyl-2-fluoro-5-hydroxy-phenyl)acetyl]amino]-N-(1-cyano-1-methyl-ethyl)thiophene-2-carboxamide] | 134% | 85 nM |
| CC(C)(C)NC(=O)c1cc(C(=O)NCc2ccccc2O)ccn1 [Example 4, N2-tert-Butyl-N4-[(2-hydroxyphenyl)methyl]pyridine-2,4-dicarboxamide] | 35.2% | – |
| CC(C)(C)NC(=O)c1cccc(C(=O)NCc2ccccc2O)c1 [Example 5, N1-tert-Butyl-N3-[(2-hydroxyphenyl)methyl]benzene-1,3-dicarboxamide] | 41.2% | 2910 nM |
| CC(C)(C)NC(=O)c1cc(NC(=O)Cc2cc(Cl)ccc2O)cs1 [Example 1.2, N-tert-Butyl-4-[[2-(5-chloro-2-hydroxy-phenyl)acetyl]amino]thiophene-2-carboxamide] | 237% | 400 nM |
| CC(C)(C)C(=O)Nc1cccc(C(=O)NCc2cc(Cl)ccc2O)c1 [Example 2, N-[(5-Chloro-2-hydroxy-phenyl)methyl]-3-(2,2-dimethylpropanoylamino)benzamide] | 127% | – |
| O=C(Cc1cc(Cl)ccc1O)Nc1ccnc(NC(=O)C2CCCCC2)c1 [Example 7.1, N-[4-[[2-(5-Chloro-2-hydroxy-phenyl)acetyl]amino]-2-pyridyl]cyclohexane carboxamide] | 120% | 1110 nM |
